Reference: PubChem BioAssay (NCI)
Values joined by “and” are separate entries in the source; they are usually repeats but may differ in a detail not shown here. Equal values may be shown once.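 Results reflect a 48-hour exposure of cells in 96-well plates to compound at five concentrations. At the TGI there is no net growth.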

These compounds were tested on SK-MEL-28 melanoma (assay: NCI-60 cell line screen, 48 h).

Row | SMILES | TGI
1 | OC(C/C=N/N=C/CC(O)(C(F)(F)Cl)C(F)(F)Cl)(C(F)(F)Cl)C(F)(F)Cl | > 10 µM
2 | O=C1C=C(Nc2ccc(S(=O)(=O)Nc3nccs3)cc2)c2ccccc2C1=O | 45.2 µM
3 | O=c1[nH]c2nc3ccccc3c(=O)n2/c1=C/c1cccs1 | > 100 µM
4 | COc1ccc(/C=N/N=C(\N)NO)c(OC)c1C | > 100 µM
5 | CCCC(=O)[O-].CCCC(=O)[O-].NCCN.NCCN.[Co+3].[O-][Cl+3]([O-])([O-])[O-] | > 100 µM
6 | O=C1CCSCCC(=O)Nc2ccccc2N1 | > 100 µM
7 | COc1ccc(N2C(=O)C(=O)N(c3ccc(N=Nc4ccccc4)cc3)C2=S)cc1 | 41.2 µM
8 | Cc1ccc(CSC(N)=Nc2ccccc2)cc1C | 45.1 µM
9 | C=C1CCCCCCCCC/C=C/1SCCCSC | > 100 µM
10 | COc1ccc2nc3cc(Cl)ccc3c(Sc3ccc(NC(C)=O)cc3)c2c1 | 38.7 µM
11 | Nc1c(S(=O)(=O)c2ccccc2)c2nc3ccccc3nc2n2c1nc1ccccc12 | > 62.3 µM
12 | Cc1[nH]n(-c2nc(O)c(-c3ccccc3)c(=O)[nH]2)c(=O)c1CCO | > 100 µM
13 | C=C1CC[C@H]2C(=O)OC(c3ccoc3)C[C@]2(C)C/C=C\C=C/1C(=O)OC (some centres undefined) | > 25 µM
14 | O=C1C(Br)=CC2(C=C1Br)CCNC1=C2C(=O)c2ncccc2C1=O | 2.17 µM
15 | COC(=O)[C@@H](NC(=O)N(Cc1ccccc1)C[C@H](CC(C)C)NC(=O)[C@@H](NC(=O)OC(C)(C)C)C(C)C)C(C)C | > 100 µM
16 | CC(NC(=O)c1c(O)[nH]c(=S)[nH]c1=O)c1ccc([N+](=O)[O-])cc1 (centres undefined) | > 100 µM
17 | COC(=O)N[C@H](C(=O)NC(OCc1ccccc1)C1COC(C)(C)O1)C(C)O[Si](C)(C)C(C)(C)C (some centres undefined) | > 100 µM
18 | CC(=O)O[C@]12CCCCCC1C1(O)C(O)CCCCC12 (some centres undefined) | > 100 µM
19 | O=Cc1ccc(-c2ccc(-c3ccc(CO)s3)o2)s1 | > 80.1 µM
20 | CN1CC=C(c2c(N)nc(N)[nH]c2=O)CC1 | > 100 µM
21 | CN1CCc2c(sc3[nH]c(=S)[nH]c(=S)c23)C1 | > 100 µM
22 | Cc1n[n+](Cc2ccccc2)c2sc(N)nn12 | > 100 µM
23 | CC(=O)Nc1c(C(=N)C#N)ncn1CCO | > 100 µM
24 | O=C(NCCN1CCOCC1)c1ccc(I)cc1 | > 100 µM
25 | Cc1ccc(S(=O)(=O)C2=C(C(C)C)N=NC2(C)C)cc1 | > 100 µM
26 | COc1cc2nc(-c3cccs3)nc(Cl)c2cc1OC | > 100 µM
27 | CCC1CC(O)c2c(O)c3c(c(O)c2C1O)C(=O)c1cccc(O)c1C3=O (centres undefined) (tested in a mixture with another compound) | 0.0712 µM and 0.0612 µM
28 | CCOC(=O)CCC1(CCC(=O)OCC)CCCCCCCCC(CCC(=O)OCC)(CCC(=O)OCC)C(=O)C1=O | > 100 µM

What follows are compounds tested on DU-145 prostate (assay: NCI-60 cell line screen, 48 h).

Row | SMILES | TGI
29 | CC(=O)O[C@@]12CO[C@@H]1CC(O)[C@@]1(C)C(=O)[C@H](O)C3=C(C)C(O)C[C@@](O)(C(OC(=O)c4ccccc4)C12)C3(C)C (some centres undefined) | > 100 µM
30 | COc1ccc(CNc2nc(NC3CCCCC3)nc(NC3CCCCC3)n2)cc1 | > 100 µM
31 | CN(C)CCCNc1ccc2ncn3c4ccc(O)cc4c(=O)c1c23 | 21.2 µM
32 | S=C1NCCN1C(=S)Nc1ccccc1 | > 100 µM
33 | CCOC(=O)c1ccc(-c2ccc(Cl)cc2)[nH]1 | > 10 µM
34 | CC1CC(Nc2ccc(Br)cc2)N(C(=O)c2ccc(Br)cc2)O1 (centres undefined) | > 10 µM
35 | OC(C/C=N/N=C/CC(O)(C(F)(F)Cl)C(F)(F)Cl)(C(F)(F)Cl)C(F)(F)Cl | > 10 µM
36 | O=c1[nH]c2nc3ccccc3c(=O)n2/c1=C/c1cccs1 | > 100 µM
37 | Cc1cc(C)nc(NC(P(=O)(O)O)P(=O)(O)O)n1 | > 100 µM
38 | O=C1CCSCCC(=O)Nc2ccccc2N1 | > 100 µM
39 | COc1ccc(N2C(=O)C(=O)N(c3ccc(N=Nc4ccccc4)cc3)C2=S)cc1 | 34.3 µM
40 | Cc1ccc(CSC(N)=Nc2ccccc2)cc1C | 55.4 µM
41 | C=C1CCCCCCCCC/C=C/1SCCCSC | > 100 µM
42 | Cc1[nH]n(-c2nc(O)c(-c3ccccc3)c(=O)[nH]2)c(=O)c1CCO | > 100 µM
43 | CC(NC(=O)Cc1ccccc1)NC(=O)C(C)C(=O)NCc1ccccc1 (centres undefined) | > 100 µM
44 | O=C1C(Br)=CC2(C=C1Br)CCNC1=C2C(=O)c2ncccc2C1=O | 3.06 µM

Row | SMILES | TGI
45 | COC(=O)[C@@H](NC(=O)N(Cc1ccccc1)C[C@H](CC(C)C)NC(=O)[C@@H](NC(=O)OC(C)(C)C)C(C)C)C(C)C | > 100 µM
46 | CCCCC1Cc2cc(O)ccc2-c2nc3cc(O)ccc3n21 (centres undefined) (tested in a mixture with another compound) | > 100 µM
47 | CC(NC(=O)c1c(O)[nH]c(=S)[nH]c1=O)c1ccc([N+](=O)[O-])cc1 (centres undefined) | > 100 µM
48 | NC1(CCNC(=O)c2ccccc2)CCN(C(=O)c2ccccc2)CC1 | > 100 µM
49 | COC(=O)N[C@H](C(=O)NC(OCc1ccccc1)C1COC(C)(C)O1)C(C)O[Si](C)(C)C(C)(C)C (some centres undefined) | > 100 µM
50 | O=Cc1ccc(-c2ccc(-c3ccc(CO)s3)o2)s1 | > 71.6 µM
51 | CN1CC=C(c2c(N)nc(N)[nH]c2=O)CC1 | > 100 µM
52 | CN1CCc2c(sc3[nH]c(=S)[nH]c(=S)c23)C1 | > 100 µM
53 | Cc1n[n+](Cc2ccccc2)c2sc(N)nn12 | > 100 µM
54 | CC(=O)Nc1c(C(=N)C#N)ncn1CCO | > 100 µM
55 | Cc1ccc(S(=O)(=O)C2=C(C(C)C)N=NC2(C)C)cc1 | > 100 µM
56 | COc1cc2nc(-c3cccs3)nc(Cl)c2cc1OC | > 100 µM
57 | CCC1CC(O)c2c(O)c3c(c(O)c2C1O)C(=O)c1cccc(O)c1C3=O (centres undefined) (tested in a mixture with another compound) | 0.135 µM and 0.651 µM
58 | COc1ccc(/C(Cl)=C(\C#N)c2ccc(OC)c(OC)c2)cc1OC | > 100 µM
59 | CCOC(=O)CCC1(CCC(=O)OCC)CCCCCCCCC(CCC(=O)OCC)(CCC(=O)OCC)C(=O)C1=O | > 100 µM
60 | COCn1cnc2c(=O)nc(SC)n(-c3ccccc3)c21 | > 100 µM

The compounds below were run on 786-0 renal (assay: NCI-60 cell line screen, 48 h).

Row | SMILES | TGI
61 | CC(=O)O[C@@]12CO[C@@H]1CC(O)[C@@]1(C)C(=O)[C@H](O)C3=C(C)C(O)C[C@@](O)(C(OC(=O)c4ccccc4)C12)C3(C)C (some centres undefined) | > 100 µM
62 | COc1ccc(CNc2nc(NC3CCCCC3)nc(NC3CCCCC3)n2)cc1 | 70.3 µM
63 | CN(C)CCCNc1ccc2ncn3c4ccc(O)cc4c(=O)c1c23 | 14.7 µM
64 | Cc1ccc(NC(=O)C(=O)C2C(=O)NC(=O)NC2=O)cc1C | > 100 µM
65 | S=C1NCCN1C(=S)Nc1ccccc1 | > 100 µM
66 | C[n+]1c2ccccc2c(NC(CCCN=C(N)N)C(=O)O)c2ccccc21 (centres undefined) | > 100 µM
67 | CCOC(=O)c1ccc(-c2ccc(Cl)cc2)[nH]1 | > 10 µM
68 | CC1CC(Nc2ccc(Br)cc2)N(C(=O)c2ccc(Br)cc2)O1 (centres undefined) | > 10 µM
69 | OC(C/C=N/N=C/CC(O)(C(F)(F)Cl)C(F)(F)Cl)(C(F)(F)Cl)C(F)(F)Cl | > 10 µM
70 | O=C1C=C(Nc2ccc(S(=O)(=O)Nc3nccs3)cc2)c2ccccc2C1=O | > 100 µM
71 | O=c1[nH]c2nc3ccccc3c(=O)n2/c1=C/c1cccs1 | > 100 µM
72 | Cc1cc(C)nc(NC(P(=O)(O)O)P(=O)(O)O)n1 | > 100 µM
73 | COc1ccc(/C=N/N=C(\N)NO)c(OC)c1C | 67.7 µM
74 | CCCC(=O)[O-].CCCC(=O)[O-].NCCN.NCCN.[Co+3].[O-][Cl+3]([O-])([O-])[O-] | > 100 µM
75 | O=C1CCSCCC(=O)Nc2ccccc2N1 | > 100 µM
76 | COc1ccc(N2C(=O)C(=O)N(c3ccc(N=Nc4ccccc4)cc3)C2=S)cc1 | 35.5 µM
77 | Cc1ccc(CSC(N)=Nc2ccccc2)cc1C | 44.7 µM
78 | C=C1CCCCCCCCC/C=C/1SCCCSC | > 100 µM
79 | COc1ccc2nc3cc(Cl)ccc3c(Sc3ccc(NC(C)=O)cc3)c2c1 | > 20.1 µM
80 | COc1cccc(-c2nc(-c3cnccn3)n(C/C=C/c3ccccc3)n2)c1 | > 10 µM
81 | Nc1c(S(=O)(=O)c2ccccc2)c2nc3ccccc3nc2n2c1nc1ccccc12 | > 50.5 µM
82 | Cc1[nH]n(-c2nc(O)c(-c3ccccc3)c(=O)[nH]2)c(=O)c1CCO | > 100 µM

Row | SMILES | TGI
83 | C=C1CC[C@H]2C(=O)OC(c3ccoc3)C[C@]2(C)C/C=C\C=C/1C(=O)OC (some centres undefined) | > 25 µM
84 | CC(NC(=O)Cc1ccccc1)NC(=O)C(C)C(=O)NCc1ccccc1 (centres undefined) | > 100 µM
85 | O=C1C(Br)=CC2(C=C1Br)CCNC1=C2C(=O)c2ncccc2C1=O | 3.11 µM
86 | COC(=O)[C@@H](NC(=O)N(Cc1ccccc1)C[C@H](CC(C)C)NC(=O)[C@@H](NC(=O)OC(C)(C)C)C(C)C)C(C)C | > 100 µM
87 | CCCCC1Cc2cc(O)ccc2-c2nc3cc(O)ccc3n21 (centres undefined) (tested in a mixture with another compound) | 52.9 µM
88 | CC(NC(=O)c1c(O)[nH]c(=S)[nH]c1=O)c1ccc([N+](=O)[O-])cc1 (centres undefined) | > 100 µM
89 | CC(=O)c1c(N=[N+]=[N-])c2cccc3c2n(c1=O)CCC3 | 33.5 µM
90 | NC1(CCNC(=O)c2ccccc2)CCN(C(=O)c2ccccc2)CC1 | > 100 µM
91 | COC(=O)N[C@H](C(=O)NC(OCc1ccccc1)C1COC(C)(C)O1)C(C)O[Si](C)(C)C(C)(C)C (some centres undefined) | > 100 µM
92 | CC(=O)O[C@]12CCCCCC1C1(O)C(O)CCCCC12 (some centres undefined) | > 100 µM
93 | O=Cc1ccc(-c2ccc(-c3ccc(CO)s3)o2)s1 | > 48.9 µM
94 | CN1CC=C(c2c(N)nc(N)[nH]c2=O)CC1 | > 100 µM
95 | CN1CCc2c(sc3[nH]c(=S)[nH]c(=S)c23)C1 | > 100 µM
96 | Cc1n[n+](Cc2ccccc2)c2sc(N)nn12 | > 100 µM
97 | CC(=O)Nc1c(C(=N)C#N)ncn1CCO | > 100 µM
98 | O=C(NCCN1CCOCC1)c1ccc(I)cc1 | > 100 µM
99 | Cc1ccc(S(=O)(=O)C2=C(C(C)C)N=NC2(C)C)cc1 | > 100 µM
100 | COc1cc2nc(-c3cccs3)nc(Cl)c2cc1OC | > 100 µM
101 | CCC1CC(O)c2c(O)c3c(c(O)c2C1O)C(=O)c1cccc(O)c1C3=O (centres undefined) (tested in a mixture with another compound) | 0.758 µM and 1.22 µM
102 | COc1ccc(/C(Cl)=C(\C#N)c2ccc(OC)c(OC)c2)cc1OC | > 100 µM
103 | CCOC(=O)CCC1(CCC(=O)OCC)CCCCCCCCC(CCC(=O)OCC)(CCC(=O)OCC)C(=O)C1=O | > 100 µM
104 | COCn1cnc2c(=O)nc(SC)n(-c3ccccc3)c21 | > 100 µM
